The results in this text go back to patent US9688637B2, “3-amidobenzamides and uses thereof for increasing cellular levels of A3G and other A3 family members” (Northwestern University, priority 2014, dated 2017).

One assay relates to A3G-Luc. As to the kind of experiment: A3G-Luc luciferase screen in 293T cells stably expressing A3G-Luc. The assay is classed as cell-based, human. Particulars: for A3G-Luc Activity (% of Relative Light Units compared to DMSO treated control): 10 μM, 48 hrs, DMSO = 100%.
A further assay deals with Wild-type HIV-1. Briefly: A3G-mediated restriction of wild-type HIV-1; virus from 293T stably expressing A3G, TZM-bl readout. It counts as cell-based. Particulars: Human immunodeficiency virus 1, HEK-293T, read-out: A3G-mediated Restriction by Compounds on Wild-type HIV-1 (% of HIV replication relative to DMSO treated Control). As to the method: To test the effect of compounds shown to boost A3G-Luc levels in our screening systems on inhibition of wild-type HIV-1 replication by A3G or A3F, 293T cell lines stably expressing A3G or A3F were plated (750,000 cells per well in 6-well plate). At 24 hrs post plating, 1.5 μg of a wild-type (Vif-positive) HIV-1 proviral vector, NL4.3, was transfected into the 293T stable cell lines expressing either A3G or A3F. At 4 hrs post transfection, either DMSO as a control or an individual compound from series described below was added into the culture medium at a 10 μM concentration. At 1 day post transfection, supernatant fluids containing viral particles were filtered through […] filter to remove cellular debris. To test the effect of compound on HIV-1 replication, TZM-bl indicator cells were plated at a density of 10,000 cells/well in a 96 well culture plate 24 hrs prior to infection. TZM-bl indicator cells express luciferase gene under the control of HIV LTR promoter and are routinely used to measure HIV-1 replication capability. On the day of infection, the culture medium was removed and the cells inoculated with equal amount of HIV-1 particles in triplicate with 100 μl of viral supernatants in culture medium containing 20 μg/ml DEAE-dextran. After 24 hrs of incubation, culture medium was removed from each well and replaced with 100 μl of Britelite Plus luciferase assay substrate. Following 5 min. of incubation at room temperature, 75 μl of each cell lysate was transferred to a 96-well OptiPlate 96 and luminescence was measured in a VICTOR X2 Multilabel Reader as described above. Relative infectivity was calculated by plotting luciferase activity from viral particle from DMSO treated A3G or A3F cell lines as 100%. We only tested effect A3F- or A3G mediated restriction of HIV-1 replication by compounds boosting luciferase activity by more than 160% compared to DMSO control sample.

Another assay concerns BC-1. Briefly: BC-1 primary effusion lymphoma cell proliferation. It counts as cell-based. Particulars: primary effusion lymphoma (PEL) cell line (FIG. 10). An excerpt: FIG. 10. A primary effusion lymphoma (PEL) cell line (BC-1, infected with both Kaposi's sarcoma herpesvirus and Epstein Barr Virus) is also killed by the listed compounds.
The subject of another assay is HEK293. As to the kind of experiment: Cancer cell death, cell numbers vs DMSO. To be noted: 6 μM, 16 days; embryonic kidney cell line lacking A3B, wild-type functional p53. The assay is classed as cell-based, human. The text has this:
To test the effect of the compounds described below on cancer cell death, cell lines derived from different types of cancer were studied in vitro. MCF10A, MCF7, T47D, MDA-MB-157 and MDA-MB-231 are breast cancer cell lines. NHPrE, BHPrE, RWPE1, DU145, and PC3 cells are prostate cell lines. HeLa is cervical cancer cell line. HEK293 is human embryonic kidney cell line lacking A3B expression. There are differences among these cancer cell lines in p53 expression (44-46). MCF10A, MCF7, NHPrE, BHPrE and HEK293 cells have wild-type and functional p53. RWPE1 and HeLa cells have wild-type p53 but the p53 protein in these cell line is not functional because of effects of human papilloma virus E6 protein. T47D, MDA-MB-231, and DU145 cell lines have mutant p53, while MDA-MB-157 and PC3 cells have no p53 expression. 25,000 cells per well were plated in 6 well plates. In the case of HEK293 cells. 500,000 cells per well in 6-well plates were used instead. After 24 hrs, culture medium was replaced with new medium containing either DMSO as control or one of the compounds described below (6 μM per well concentration). After 8 days incubation with compounds, cell numbers were counted from each well and plotted with number of cells from DMSO treated sample as 100%. We performed the experiments at least twice. HEK293, MCF7 and T47D cells they were maintained for 16 days with compounds instead of 8 days.

With `COc1ccc(C(=O)Nc2ccc(Cl)c(Cl)c2)cc1NC(=O)C(C)C` [NU-52], the “A3G-Luc Activity (% of Relative Light Units compared to DMSO treated control)” value in the assay with A3G-Luc amounted to 178%. For the same compound, the “increase of A3G” value in the assay on A3G-Luc (293T stably expressing A3G-Luc, without Vif (FIG. 6)) was “about 3 fold”. The activity at 10 µM with Wild-type HIV-1 is 57%. The BC-1 cell proliferation entry in the assay with BC-1 is given as “inhibit BC-1 cell proliferation”. Besides, in the assay on HEK293, the “cell killing (cell numbers vs DMSO)” value is listed as “not killed”.

Regarding `COc1ccc(C(=O)Nc2ccc(Cl)c(Cl)c2)cc1NC(=O)C1CCC1` [NU-302], in the assay with A3G-Luc, the “A3G-Luc Activity (% of Relative Light Units compared to DMSO treated control)” value was 196%. The activity at 10 µM in the assay on Wild-type HIV-1 is 60%. In addition, in the assay on BC-1, the BC-1 cell proliferation entry is reported as “inhibit BC-1 cell proliferation”. For the same compound, the “cell killing (cell numbers vs DMSO)” value in the assay with HEK293 is recorded as “not killed”.

On to `COc1ccc(C(=O)Nc2ccc(Cl)c(Cl)c2)cc1NC(=O)CC1CC1` [NU-466], for which the “A3G-Luc Activity (% of Relative Light Units compared to DMSO treated control)” value in the assay with A3G-Luc is listed as 318%. Further, in the assay with Wild-type HIV-1, the activity at 10 µM came out at 72%. For the same compound, in the assay with BC-1, the BC-1 cell proliferation entry is “inhibit BC-1 cell proliferation”. Also, the “cell killing (cell numbers vs DMSO)” value in the assay with HEK293 is on record as “not killed”.
